Data taken from patent EP0324626A1, “1,4-Dihydropyridine derivatives” (priority 1988, dated 1989).

assay: Acute toxicity test (limit test and range finding test), oral administration; conditions: both, ICR, mouse, in vivo
Description: The limit test and the range finding test were carried out using the SPF mice, as stated below, and LD₅₀ values were determined.
The dead mice are weighed and organ examinations are carried out for macroscopical lesions. Also, on the last day of the test all surviving mice are sacrificed and used for examinations.
If the mortality is more than 50% in the limit test, the range finding test is carried out for 14 days with three doses groups including the putative LD₅₀ value. The method is same as the foregoing limit test.

| Compound | LD50 at 14 days [mg/kg] |
| --- | --- |
| COC(=O)C1=C(C)NC(C)=C(C(=O)OCCN(C)Cc2ccccc2)C1c1cccc([N+](=O)[O-])c1 (stereo not drawn) [Nicardipine, reference compound] | < 700 |
| C=C(C)COC(=O)C1=C(C)NC(C)=C(C(=O)OC)C1c1cccc([N+](=O)[O-])c1 (stereo not drawn) [Example 12, 3-methyl 5-(2-methyl-2-propenyl) 2,6-dimethyl-4-(3′-nitrophenyl)-1,4-dihydropyridine-3,5-dicarboxylate] | 1000 |
| C=CCOC(=O)C1=C(C)NC(C)=C(C(=O)OCC(=C)C)C1c1cccc([N+](=O)[O-])c1 (stereo not drawn) [Example 13, 3-(2-methyl-2-propenyl) 5-allyl 2,6-dimethyl-4-(3′-nitrophenyl)-1,4-dihydropyridine-3,5-dicarboxylate] | > 5000 |
| C=C(C)COC(=O)C1=C(C)NC(C)=C(C(=O)OCCN(C)Cc2ccccc2)C1c1cccc([N+](=O)[O-])c1 (stereo not drawn) [Example 8, 3-β-(N-benzyl-N-methylamino)ethyl 5-(2-methyl-2-propenyl) 2,6-dimethyl-4-(3′-nitrophenyl)-1,4-dihydropyridine-3,5-dicarboxylate] | > 1000 |
| C=CC(C)OC(=O)C1=C(C)NC(C)=C(C(=O)OCCN(C)Cc2ccccc2)C1c1cccc([N+](=O)[O-])c1 (stereo not drawn) [Example 1, 3-β-(N-benzyl-N-methylamino)ethyl 5-(1-methyl-2-propenyl) 2,6-dimethyl-4-(3′-nitrophenyl)-1,4-dihydropyridine-3,5-dicarboxylate] | > 1000 |
| C=CC(C)OC(=O)C1=C(C)NC(C)=C(C(=O)OCCOC)C1c1cccc([N+](=O)[O-])c1 (stereo not drawn) [Example 3, 3-(1-methyl-2-propenyl) 5-(2-methoxyethyl) 2,6-dimethyl-4-(3′-nitrophenyl)-1,4-dihydropyridine-3,5-dicarboxylate] | > 5000 |
